# Values of other authors as cited in paper PMC6379498, “Radiosynthesis and in vivo evaluation of ^11C-labeled BMS-193885 and its desmethyl analog as PET tracers for neuropeptide Y1 receptors” (EJNMMI Radiopharmacy and Chemistry, 2019).
# Read-outs that look alike come from different tables or passages of the source.
# Tests used:
# [1] = parameters: method as in Antal-Zimanyi et al. [2008]; conditions: dogs, ref Antal-Zimanyi et al. [2008]; cited from earlier work
# [2] = parameters: method as in Antal-Zimanyi et al. [2008]; conditions: rats, ref Antal-Zimanyi et al. [2008]; cited from earlier work
# [3] = parameters: method as in Antal-Zimanyi et al. [2008]; conditions: ref Antal-Zimanyi et al. [2008]; cited from earlier work
# [4] = target: NPY Y1-R; parameters: method as in Poindexter et al. [2002]; conditions: ref Poindexter et al. [2002]; cited from earlier work
# [5] = tested on: animal models of obesity; parameters: method as in Antal-Zimanyi et al. [2008]; conditions: acute and chronic administration, ref Antal-Zimanyi et al. [2008]; cited from earlier work
# [6] = parameters: method as in Poindexter et al. [2002]; conditions: in vitro, unlabeled 1, ref Poindexter et al. [2002]; cited from earlier work
Compound,Adverse cardiovascular effects [1],Adverse cardiovascular effects [2],Brain penetration [3],Oral bioavailability [3],Systemic bioavailability [3],Ki [4] [nM],Body weight [5],Food intake [5],Stability in rat liver microsomes [6]
COC(=O)C1=C(C)NC(C)=C(C(=O)OC)C1c1cccc(NC(=O)NCCCN2CCC(c3cccc(OC)c3)CC2)c1 [Compound 1],no serious adverse cardiovascular effects,no serious adverse cardiovascular effects,good,lacks oral bioavailability,good,3.3,reduced,reduced,good stability
"COC(=O)C1=C(C)NC(C)=C(C(=O)OC)C1c1cccc(NC(=O)NCCCN2CCC(c3cccc(O)c3)CC2)c1 [Compound 2, Dimethyl 4-(3-(3-(3-(4-(3-hydroxyphenyl)piperidin-1-yl)propyl)ureido)phenyl)-2,6-dimethyl-1,4-dihydropyridine-3,5-dicarboxylate]",,,,,,2.7,,,
